According to paper PMC10945555, “Improving Activity of New Arylurea Agents against Multidrug-Resistant and Biofilm-Producing Staphylococcus epidermidis” (ACS Medicinal Chemistry Letters, 2024):
Values after ≈ are worked out from the molar mass of the structure shown. Like-named read-outs stand apart in the source and are kept apart here.

Experiments:
Format in all cases: cell-based
[1] = system: Staphylococcus aureus ATCC BAA-976; assay: MIC, broth microdilution, MDR/BPSA reference strain; conditions: ATCCBAA976; Staphylococcus aureus ATCC BAA-976; read-out: MIC MDR/BPSA
Outline: (§1)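 Compounds tested as free bases dissolved in DMSO (1 mg/mL stock); determinations done twice; linezolid as positive control.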

[2] = system: Staphylococcus epidermidis ATCC 12228; assay: MIC, broth microdilution, MSSE reference strain; conditions: ATCC12228, Staphylococcus epidermidis ATCC 12228, read-out: MIC MSSE
Source text: These strains included susceptible, multidrug-resistant, and biofilm-producing strains of S. epidermidis and S. aureus (MSSE, MDR/BPSE, and MDR/BPSA, respectively). The cornerstone antibiotic linezolid served as a positive control (Table 1). The impact of structural modifications at the aryloxy fragment and the aromatic moiety bound to the propyl linker on the inhibitory activity was initially investigated. […] Further optimization focused on evaluating the impact of the type of substituent and its position on the arylsulfonamide fragment’s activity.
2 Biological assay protocols
Microbiological tests were carried out under aseptic conditions in a laminar chamber of the 2nd […]
(BioTectum 1.2, Alchem Poland). The assessment of antimicrobial activity was carried out for final compounds in the form of free bases, soluble in DMSO (Merck, Germany), at the initial […]
concentration of 1 mg/mL. […]
were provided by Cayman Chemical, USA.
The activity of all newly synthesized compounds was tested in vitro on a panel of selected reference strains from the American Type Culture Collection (ATCC) of Gram-positive […]
2.2 Effect of evaluated compounds on planktonic cells
The susceptibility of three reference bacterial strains (Staphylococcus epidermidis ATCC […]
Table S1) and 81 clinical MDR S. epidermidis (Table S2) to the tested compounds was assessed by determining the MIC value (Minimal Inhibitory Concentration) by microdilution in a liquid medium in 96-well flat-bottom cell culture plates (Nest Biotechnology Scientific, USA). The antibacterial properties of the compo unds were tested in the concentration range from 50 µg/mL to 0.1 µg/mL by making a series of double dilutions of the compound in liquid Mueller -Hinton II Broth Cation Adjusted (MHB II, BBL TM, USA) according to the European Committee on […]
Antimicrobial Susceptibility Testing guidelines (EUCAST).2,3 The determinations were performed twice. The MIC50 and MIC90 values were determined for each of the tested

[3] = system: Staphylococcus epidermidis ATCC 35984; assay: MIC, broth microdilution, MDR/BPSE reference strain; conditions: Staphylococcus epidermidis, ATCC35984, read-out: MIC MDR/BPSE, Staphylococcus epidermidis ATCC 35984
Outline: as §1

[4] = system: clinical MDR Staphylococcus epidermidis isolates; assay: MIC, broth microdilution, 81 clinical MDR strains; conditions: Staphylococcus epidermidis
Outline: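 MICs were determined by twofold broth microdilution in cation-adjusted Mueller-Hinton II broth per EUCAST, over 50–0.1 µg/mL, in duplicate. Compounds were tested as free bases dissolved in DMSO; MIC50 and MIC90 were derived across the 81 clinical MDR S. epidermidis strains.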

SMILES: CC(=O)NC[C@H]1CN(c2ccc(N3CCOCC3)c(F)c2)C(=O)O1 [linezolid, reference compound]
- MIC [1]: 1.6 µg/mL (≈ 4.74 µM)
- MIC [2]: 0.8 µg/mL (≈ 2.37 µM)
- MIC [3]: 1.6 µg/mL (≈ 4.74 µM)
- MIC ([4]; clinical strain 1 (Table S2), read-out: MIC): 1.6 µg/mL (≈ 4.74 µM)
- MIC ([4]; clinical strain 2 (Table S2), read-out: MIC): 1.6 µg/mL (≈ 4.74 µM)
- MIC ([4]; clinical strain 3 (Table S2), read-out: MIC): 1.6 µg/mL (≈ 4.74 µM)
- MIC ([4]; clinical strain 4 (Table S2), read-out: MIC): 1.6 µg/mL (≈ 4.74 µM)
- MIC ([4]; clinical strain 5 (Table S2), read-out: MIC): 1.6 µg/mL (≈ 4.74 µM)
- MIC ([4]; clinical strain 6 (Table S2), read-out: MIC): 1.6 µg/mL (≈ 4.74 µM)
- MIC ([4]; clinical strain 7 (Table S2), read-out: MIC): 1.6 µg/mL (≈ 4.74 µM)
- MIC ([4]; clinical strain 8 (Table S2), read-out: MIC): 1.6 µg/mL (≈ 4.74 µM)
- MIC ([4]; clinical strain 9 (Table S2), read-out: MIC): 1.6 µg/mL (≈ 4.74 µM)
- MIC ([4]; clinical strain 10 (Table S2), read-out: MIC): 1.6 µg/mL (≈ 4.74 µM)
- MIC ([4]; clinical strain 11 (Table S2), read-out: MIC): 1.6 µg/mL (≈ 4.74 µM)
- MIC ([4]; clinical strain 12 (Table S2), read-out: MIC): 0.8 µg/mL (≈ 2.37 µM)
- MIC ([4]; clinical strain 13 (Table S2), read-out: MIC): 1.6 µg/mL (≈ 4.74 µM)
- MIC ([4]; clinical strain 14 (Table S2), read-out: MIC): 1.6 µg/mL (≈ 4.74 µM)
- MIC ([4]; clinical strain 15 (Table S2), read-out: MIC): 1.6 µg/mL (≈ 4.74 µM)
- MIC ([4]; clinical strain 16 (Table S2), read-out: MIC): 1.6 µg/mL (≈ 4.74 µM)
- MIC ([4]; clinical strain 17 (Table S2), read-out: MIC): 0.8 µg/mL (≈ 2.37 µM)
- MIC ([4]; clinical strain 18 (Table S2), read-out: MIC): 0.8 µg/mL (≈ 2.37 µM)
- MIC ([4]; clinical strain 19 (Table S2), read-out: MIC): 1.6 µg/mL (≈ 4.74 µM)
- MIC ([4]; clinical strain 20 (Table S2), read-out: MIC): 1.6 µg/mL (≈ 4.74 µM)
- MIC ([4]; clinical strain 21 (Table S2), read-out: MIC): 1.6 µg/mL (≈ 4.74 µM)
- MIC ([4]; clinical strain 22 (Table S2), read-out: MIC): 1.6 µg/mL (≈ 4.74 µM)
- MIC ([4]; clinical strain 23 (Table S2), read-out: MIC): 1.6 µg/mL (≈ 4.74 µM)
- MIC ([4]; clinical strain 24 (Table S2), read-out: MIC): 1.6 µg/mL (≈ 4.74 µM)
- MIC ([4]; clinical strain 25 (Table S2), read-out: MIC): 1.6 µg/mL (≈ 4.74 µM)
- MIC ([4]; clinical strain 26 (Table S2), read-out: MIC): 0.8 µg/mL (≈ 2.37 µM)
- MIC ([4]; clinical strain 27 (Table S2), read-out: MIC): 1.6 µg/mL (≈ 4.74 µM)
- MIC ([4]; clinical strain 28 (Table S2), read-out: MIC): 1.6 µg/mL (≈ 4.74 µM)
- MIC ([4]; clinical strain 29 (Table S2), read-out: MIC): 0.8 µg/mL (≈ 2.37 µM)
- MIC ([4]; clinical strain 30 (Table S2), read-out: MIC): 1.6 µg/mL (≈ 4.74 µM)
- MIC ([4]; clinical strain 31 (Table S2), read-out: MIC): 1.6 µg/mL (≈ 4.74 µM)
- MIC ([4]; clinical strain 32 (Table S2), read-out: MIC): 1.6 µg/mL (≈ 4.74 µM)
- MIC ([4]; clinical strain 33 (Table S2), read-out: MIC): 0.8 µg/mL (≈ 2.37 µM)
- MIC ([4]; clinical strain 34 (Table S2), read-out: MIC): 1.6 µg/mL (≈ 4.74 µM)
- MIC ([4]; clinical strain 35 (Table S2), read-out: MIC): 1.6 µg/mL (≈ 4.74 µM)
- MIC ([4]; clinical strain 36 (Table S2), read-out: MIC): 0.8 µg/mL (≈ 2.37 µM)
- MIC ([4]; clinical strain 37 (Table S2), read-out: MIC): 0.8 µg/mL (≈ 2.37 µM)
- MIC ([4]; clinical strain 38 (Table S2), read-out: MIC): 0.8 µg/mL (≈ 2.37 µM)
- MIC ([4]; clinical strain 39 (Table S2), read-out: MIC): 0.8 µg/mL (≈ 2.37 µM)
- MIC ([4]; clinical strain 40 (Table S2), read-out: MIC): 0.4 µg/mL (≈ 1.19 µM)
- MIC ([4]; clinical strain 41 (Table S2), read-out: MIC): 0.8 µg/mL (≈ 2.37 µM)
- MIC ([4]; clinical strain 42 (Table S2), read-out: MIC): 1.6 µg/mL (≈ 4.74 µM)
- MIC ([4]; clinical strain 43 (Table S2), read-out: MIC): 0.8 µg/mL (≈ 2.37 µM)
- MIC ([4]; clinical strain 44 (Table S2), read-out: MIC): 1.6 µg/mL (≈ 4.74 µM)
- MIC ([4]; clinical strain 45 (Table S2), read-out: MIC): 0.8 µg/mL (≈ 2.37 µM)
- MIC ([4]; clinical strain 46 (Table S2), read-out: MIC): 1.6 µg/mL (≈ 4.74 µM)
- MIC ([4]; clinical strain 47 (Table S2), read-out: MIC): 0.8 µg/mL (≈ 2.37 µM)
- MIC ([4]; clinical strain 48 (Table S2), read-out: MIC): 3.12 µg/mL (≈ 9.26 µM)
- MIC ([4]; clinical strain 49 (Table S2), read-out: MIC): 0.2 µg/mL (≈ 0.593 µM)
- MIC ([4]; clinical strain 50 (Table S2), read-out: MIC): 0.2 µg/mL (≈ 0.593 µM)
- MIC ([4]; clinical strain 51 (Table S2), read-out: MIC): 0.2 µg/mL (≈ 0.593 µM)
- MIC ([4]; clinical strain 52 (Table S2), read-out: MIC): 0.4 µg/mL (≈ 1.19 µM)
- MIC ([4]; clinical strain 53 (Table S2), read-out: MIC): 0.4 µg/mL (≈ 1.19 µM)
- MIC ([4]; clinical strain 54 (Table S2), read-out: MIC): 0.8 µg/mL (≈ 2.37 µM)
- MIC ([4]; clinical strain 55 (Table S2), read-out: MIC): 0.8 µg/mL (≈ 2.37 µM)
- MIC ([4]; clinical strain 56 (Table S2), read-out: MIC): 0.8 µg/mL (≈ 2.37 µM)
- MIC ([4]; clinical strain 57 (Table S2), read-out: MIC): 0.8 µg/mL (≈ 2.37 µM)
- MIC ([4]; clinical strain 58 (Table S2), read-out: MIC): 0.8 µg/mL (≈ 2.37 µM)
- MIC ([4]; clinical strain 59 (Table S2), read-out: MIC): 0.8 µg/mL (≈ 2.37 µM)
- MIC ([4]; clinical strain 60 (Table S2), read-out: MIC): 0.8 µg/mL (≈ 2.37 µM)
- MIC ([4]; clinical strain 61 (Table S2), read-out: MIC): 0.8 µg/mL (≈ 2.37 µM)
- MIC ([4]; clinical strain 62 (Table S2), read-out: MIC): 0.8 µg/mL (≈ 2.37 µM)
- MIC ([4]; clinical strain 63 (Table S2), read-out: MIC): 0.8 µg/mL (≈ 2.37 µM)
- MIC ([4]; clinical strain 64 (Table S2), read-out: MIC): 0.8 µg/mL (≈ 2.37 µM)
- MIC ([4]; clinical strain 65 (Table S2), read-out: MIC): 0.8 µg/mL (≈ 2.37 µM)
- MIC ([4]; clinical strain 66 (Table S2), read-out: MIC): 0.8 µg/mL (≈ 2.37 µM)
- MIC ([4]; clinical strain 67 (Table S2), read-out: MIC): 1.6 µg/mL (≈ 4.74 µM)
- MIC ([4]; clinical strain 68 (Table S2), read-out: MIC): 1.6 µg/mL (≈ 4.74 µM)
- MIC ([4]; clinical strain 69 (Table S2), read-out: MIC): 1.6 µg/mL (≈ 4.74 µM)
- MIC ([4]; clinical strain 70 (Table S2), read-out: MIC): 1.6 µg/mL (≈ 4.74 µM)
- MIC ([4]; clinical strain 71 (Table S2), read-out: MIC): 1.6 µg/mL (≈ 4.74 µM)
- MIC ([4]; clinical strain 72 (Table S2), read-out: MIC): 1.6 µg/mL (≈ 4.74 µM)
- MIC ([4]; clinical strain 73 (Table S2), read-out: MIC): 1.6 µg/mL (≈ 4.74 µM)
- MIC ([4]; clinical strain 74 (Table S2), read-out: MIC): 1.6 µg/mL (≈ 4.74 µM)
- MIC ([4]; clinical strain 75 (Table S2), read-out: MIC): 1.6 µg/mL (≈ 4.74 µM)
- MIC ([4]; clinical strain 76 (Table S2), read-out: MIC): 1.6 µg/mL (≈ 4.74 µM)
- MIC ([4]; clinical strain 77 (Table S2), read-out: MIC): 1.6 µg/mL (≈ 4.74 µM)
- MIC ([4]; clinical strain 78 (Table S2), read-out: MIC): 3.12 µg/mL (≈ 9.26 µM)
- MIC ([4]; clinical strain 79 (Table S2), read-out: MIC): 12.5 µg/mL (≈ 37.1 µM)
- MIC ([4]; clinical strain 80 (Table S2), read-out: MIC): 25 µg/mL (≈ 74.1 µM)
- MIC ([4]; clinical strain 81 (Table S2), read-out: MIC): 50 µg/mL (≈ 148 µM)
- MIC ([4]; mean of MIC values against clinical MDR-SE isolates, read-out: mean MIC): 2.3 µg/mL (≈ 6.82 µM)
- MIC50 ([4]; 81 clinical strains, concentration inhibiting growth of 50% clinical isolates): 0.8 µg/mL (≈ 2.37 µM)
- MIC90 ([4]; 81 clinical strains, concentration inhibiting growth of 90% of clinical isolates): 1.6 µg/mL (≈ 4.74 µM)
